Reference: patent publication US8906829B2, “Synergistic algicidal compositions including hydrazone derivatives and copper” (Dow AgroSciences LLC, priority 2010, dated 2014)

Legend:
C. reinhardtii = assay: Effect of copper on activity of metal-hydrazone complexes: growth inhibition of C. reinhardtii in TAP Cu minus / TAP Cu plus medium (Example 13); assay type: cell-based, Chlamydomonas reinhardtii; settings: for % Inhn. Minus Copper Observed / % Inhn. Plus Copper Observed: C. reinhardtii growth inhibition; for % Inhn. Minus Copper Observed: TAP Cu minus medium; for % Inhn. Plus Copper Observed / % Inhn. Plus Copper Predicted: TAP Cu plus medium; for % Inhn. Plus Copper Predicted: calculated by Colby formula from minus-copper result and inhibition by copper chloride alone
Method: In vitro toxicity assays against C. reinhardtii CC-1928 (wild type mt+137c green in dark subclone) obtained from the Chlamydomonas Resource Center at Duke University were conducted using TAP liquid growth medium described by Gorman and Levine Proc. Natl. Acad. Sci. USA 1965, 54, 1665-1669 except that CuSO4.5H2O, normally included as a component of Hutner's trace element stock solution (Hutner et al. Proc. Am. Philos. Soc. 1950, 94, 152-170), was omitted. The TAP medium lacking Cu (TAP Cu minus) was prepared by adding 400 mg NH4Cl, 10 mL of 100× Tris-Acetate (242 g Tris-base and 100 mL glacial acetic acid in 1000 mL milli Q water), and 8.3 mL of 120.5× phosphate buffer (14.34 g K2HPO4 and 7.26 g KH2PO4 in 1000 mL milli Q water) to milli Q water to make a total volume of 1 liter. The medium was treated with 0.5 g Chelex 100 resin (Bio-Rad Analytical grade, 50-100 mesh, sodium form, cat#142-2822) by stirring at room temperature for 1 hour. 900 mL were decanted and 45.9 mg of CaCl2.2H2O, 90 mg of MgSO4.7H2O and 0.9 mL Hutner's trace elements lacking CuSO4.5H2O were added and the solution was filter-sterilized. Medium containing copper (TAP Cu plus) was prepared by adding CuCl2.2H2O to the TAP Cu minus medium at 20 μM. Test compounds were dissolved in dimethylsulfoxide (DMSO) at 2 mg/mL then dilutions in TAP Cu minus and TAP Cu plus media were prepared in sterilized microcentrifuge tubes at 2 μg/mL. 100 μL aliquots of diluted compound were dispensed into flat-bottomed 96-well microtiter plates. C. reinhardtii was maintained under 12 h of light on TAP agar plates at 18° C. A loopful of cells was added to 50 mL of TAP Cu minus medium and the culture incubated with shaking at 200 rpm at 27° C. for 24 h. The culture (10 to 20 mL aliquot) was centrifuged in a bench centrifuge at 2000 rpm for 2 min. The resulting cell pellet was resuspended in 5 mL sterile milli Q water (which had been treated with Chelex 100 resin using 0.5 g resin per liter of water by stirring at room temperature for 1 h), and recentrifuged. The cells were resuspended in TAP Cu minus medium, and the suspension adjusted to 2×10^5 spores per mL. Microtiter plates containing compounds as described above were inoculated with 100 μL of this cell suspension and the plates incubated at 27° C. for 48 h before assessing algal growth by measuring light scattering in a NepheloStar plate-reader. Growth inhibition was determined by comparing growth in the presence of test compound with growth in control wells lacking test compound. The effect of copper on activity of metal-hydrazone complexes towards C. reinhardtii was evaluated by comparing their activity in TAP Cu minus and TAP Cu plus media as described in Example 10 (compound concentrations were selected which gave low inhibition in TAP Cu minus medium). Growth inhibition was determined by comparing growth in the presence of test compound with growth in control wells lacking test compound. Results for growth inhibition by test compounds in TAP Cu plus medium (% Inhn Plus Copper Observed) were compared with predicted values (% Inhn Plus Copper Predicted) that were calculated using the formula set forth by S. R. Colby in Weeds 1967, 15, 20-22 based on results obtained for the same compounds in TAP Cu minus medium (% Inhn Minus Copper Observed) and the inhibition attributed to copper chloride alone, as determined by comparing growth in TAP Cu minus and TAP Cu plus media without any test compound across experiments.

[1] = C. reinhardtii, test concn. 0.25 μg/mL
[2] = C. reinhardtii, test concn. 0.5 μg/mL

C/C(=N\NC(=O)c1ccc(Cl)cc1)c1cc(Cl)cc(Cl)c1O [Compound 12]
melting point: 260 to 262 °C

O=C(N/N=C/c1ccc(Cl)c(Cl)c1O)c1ccccc1 [Compound 21]
melting point: 249 to 252 °C

C/C(=N\NC(=O)c1cccc(C)c1)c1cc(Cl)cc(Cl)c1O [Compound 25, 3-methyl-benzoic acid [1-(3,5-dichloro-2-hydroxyphenyl)-ethylidene]-hydrazide]
melting point: 221 to 223 °C

C/C(=N\NC(=O)c1ccc(C)cc1)c1cc(Cl)cc(Cl)c1O [Compound 26]
melting point: 262 to 264 °C

O=C(N/N=C/c1cc(Cl)cc(C(F)(F)F)c1O)c1ccccc1 [Compound 27]
melting point: 225 to 226 °C

O=C(N/N=C/c1cc(C(F)(F)F)cc(C(F)(F)F)c1O)c1ccc(Cl)cc1 [Compound 32]
melting point: 233 to 236 °C

O=C(N/N=C/c1c(Cl)ccc(Cl)c1O)c1ccc(Cl)cc1 [Compound 45]
melting point: 271 to 273 °C

O=C(N/N=C/c1cccc(Cl)c1O)c1ccc(Cl)cc1 [Compound 52]
melting point: 257 to 260 °C

O=C(N/N=C/c1c(C(F)(F)F)ccc(Cl)c1O)c1ccc(Cl)cc1 [Compound 56]
melting point: 236 to 238 °C

CC(=O)[O-].CC(=O)[O-].O=C(N/N=C/c1cc(Cl)cc(Cl)c1O)c1ccccc1.[Cu+2] [Compound 72]
% Inhn. Minus Copper Observed (C. reinhardtii; test concn. 0.25 μg/mL): 79%
% Inhn. Plus Copper Observed (C. reinhardtii; test concn. 0.25 μg/mL): 83%
% Inhn. Plus Copper Predicted (C. reinhardtii; [1]): 66%

CC(=O)[O-].CC(=O)[O-].O=C(N/N=C/c1cc(Cl)cc(Cl)c1O)c1ccccc1.O=C(N/N=C/c1cc(Cl)cc(Cl)c1O)c1ccccc1.[Cu+2] [Compound 73]
% Inhn. Minus Copper Observed (C. reinhardtii; test concn. 0.25 μg/mL): 23%
% Inhn. Plus Copper Observed (C. reinhardtii; test concn. 0.25 μg/mL): 87%
% Inhn. Plus Copper Predicted (C. reinhardtii; [1]): 10%

O=C(N/N=C/c1cc(Cl)cc(Cl)c1O)c1ccccc1.O=C(N/N=C/c1cc(Cl)cc(Cl)c1O)c1ccccc1.O=S(=O)([O-])[O-].[Cu+2] [Compound 74]
% Inhn. Minus Copper Observed (C. reinhardtii; test concn. 0.25 μg/mL): −9%
% Inhn. Plus Copper Observed (C. reinhardtii; test concn. 0.25 μg/mL): 82%
% Inhn. Plus Copper Predicted (C. reinhardtii; [1]): −22%

O=C(N/N=C/c1cc(Cl)cc(Cl)c1O)c1ccccc1.[Cl-].[Cl-].[Cu+2] [Compound 75]
% Inhn. Minus Copper Observed (C. reinhardtii; test concn. 0.25 μg/mL): 18%
% Inhn. Plus Copper Observed (C. reinhardtii; test concn. 0.25 μg/mL): 59%
% Inhn. Plus Copper Predicted (C. reinhardtii; [1]): 5%

O=C(N/N=C/c1cc(Cl)cc(Cl)c1O)c1ccccc1.O=C(N/N=C/c1cc(Cl)cc(Cl)c1O)c1ccccc1.[Cl-].[Cl-].[Cu+2] [Compound 76]
% Inhn. Minus Copper Observed (C. reinhardtii; test concn. 0.5 μg/mL): 3%
% Inhn. Plus Copper Observed (C. reinhardtii; test concn. 0.5 μg/mL): 89%
% Inhn. Plus Copper Predicted (C. reinhardtii; [2]): −10%

O=C(N/N=C/c1cc(Cl)cc(Cl)c1O)c1ccccc1.O=C(N/N=C/c1cc(Cl)cc(Cl)c1O)c1ccccc1.[Cl-].[Cl-].[Mn+2] [Compound 77]
% Inhn. Minus Copper Observed (C. reinhardtii; test concn. 0.5 μg/mL): −5%
% Inhn. Plus Copper Observed (C. reinhardtii; test concn. 0.5 μg/mL): 93%
% Inhn. Plus Copper Predicted (C. reinhardtii; [2]): −18%

O=C(NN=Cc1cc(Cl)cc(Cl)c1O)c1ccccc1.O=C(NN=Cc1cc(Cl)cc(Cl)c1O)c1ccccc1.[Cl-].[Cl-].[Zn+2] [Compound 78]
% Inhn. Minus Copper Observed (C. reinhardtii; test concn. 0.5 μg/mL): −9%
% Inhn. Plus Copper Observed (C. reinhardtii; test concn. 0.5 μg/mL): 87%
% Inhn. Plus Copper Predicted (C. reinhardtii; [2]): −22%

[Cl][Cu][Cl] [CuCl2, Copper chloride, reference compound]
% Inhn. attributed to copper chloride alone (C. reinhardtii; C. reinhardtii, CuCl2 10 μM, growth in TAP Cu plus vs TAP Cu minus medium without test compound, across experiments): −12.9%
